The values that follow are results of earlier work, collected in patent publication US11931445B2, “Composition comprising baicalin” (L'OREAL, priority 2016, dated 2024).

For series [1] the following is noted: pH more than 6.5.

Take Baicalin: the “solubility in an aqueous medium” value was “very slightly soluble”. For the same substance, the chemical stability entry in series [1] is “chemically unstable”.
